Laboratory results from article PMC4554797 (Bioorganic & medicinal chemistry, 2015).
“Also recorded” adds a separate entry of the source. Each block holds one molecule with its values, some of them ahead of it.

How the values were obtained:
[1] = tested on: MeWo; test: Cell viability assay; format: cell-based, human; settings: MeWo cells, 48 h, over the concentrations tested
[2] = tested on: OVCAR-3; test: Wound healing assay; format: cell-based, human; settings: OVCAR-3, 5 μM
[3] = tested on: MeWo cells; test: Animal model of melanoma; format: in vivo, athymic nude mice; settings: for Tumor growth vs. DMF control: 30 mg/kg i.p. three times a week
[4] = tested on: MDA-MB-231, OVCAR-3, SKOV-3 and MeWo cells; test: Wound healing assay, all cell lines examined; format: cell-based, human
[5] = tested on: Melanoma tumors; test: Tumor specimen analysis; format: in vivo, athymic nude mice
[6] = biological target: T1, ATX (Homo sapiens, UniProt Q13822); test: ATX Inhibitor Screening Kit, FS-3 hydrolysis; format: biochemical; settings: for ATX inhibition (in words): dose-response mode, highest test concentration 10 μM
[7] = tested on: KC/CXCL1; test: Serum analysis, mouse Bio-Plex 23-Plex panel; format: in vivo; settings: at necropsy; p<0.05 at 20 mg/kg, p<0.001 at 50-40 mg/kg vs. control
[8] = tested on: VEGF; test: Serum analysis, circulating VEGF; format: in vivo, mouse; settings: data not shown
[9] = tested on: multiple cancer cell lines; test: Cell viability assay; format: cell-based, human; settings: 48 h; for Effect on cell viability (in words): HT-29, PC-3, MDA-MB-231, MeWo, SB-2, OVCAR-3, SKOV-3
[10] = biological target: T1, ATX; test: Dilution/dialysis washout experiment, ATX activity by FS-3; format: biochemical; settings: pre-incubated two minutes, over 1000-fold dilution over approximately one hour
[11] = tested on: ATX; test: Serum analysis, mouse ENPP2 ELISA; format: in vivo; settings: at necropsy
[12] = tested on: MDA-MB-231; test: Wound healing assay; format: cell-based, human; settings: MDA-MB-231, 5 μM

SMILES: CC[C@]1(O)C[C@H]2CN(CCc3c([nH]c4ccccc34)[C@@](C(=O)OC)(c3cc4c(cc3OC)N(C=O)[C@H]3[C@@](O)(C(=O)OC)[C@H](OC(C)=O)[C@]5(CC)C=CCN6CC[C@]43[C@@H]65)C2)C1 [vincristine]
Cell viability reached [1]: ≥ 50%

SMILES: C=C(CCCCCCCCCCCCCCCC)S(=O)(=O)CCC[N+](C)(C)C.[Cl-] [CVS-16, N,N,N-trimethyl-3-(octadec-1-en-2-ylsulfonyl)propan-1-aminium chloride]
Reduction of wound healing [2]: over 75%
Tumor volume vs. control ([3]; 20 mg/kg i.p. three times a week): no significant difference
Time over which inhibition of tumor volume was sustained ([3]; 40-50 mg/kg, days after the injection of tumor cells): approximately 53 days
Tumor sizes vs. control ([3]; 50-40 mg/kg i.p. three times a week, day 57 (p<0.05) and day 65 (p<0.001)): achieved statistical significance
Melanoma progression in in vivo tumor model ([3]; dose not given at this place): significantly inhibited melanoma progression
Wound healing (in words) ([4]; 5 μM, 24 h, vs. untreated): inhibited wound healing
Wound closure in combination with LPA ([4]; CVS-16 5 μM combined with LPA (18:1, 1 μM), in most cases): LPA was not able to overcome the inhibition
Specimens with mixed areas of viable and necrotic endothelial cells ([5]; 20 mg/kg): 50%
Specimens with only viable endothelial cells ([5]; 20 mg/kg): 50%
Percent of necrotic tissue within the tumor ([5]; 40-50 mg/kg, p<0.01 vs. control, p<0.05 vs. 20 mg/kg): significantly more necrosis than control
Ki-67 staining of tumor sections ([5]; data not shown): no significant differences
Deaths (50 mg/kg group (n=5)): one mouse
Clinical condition of mice (50 mg/kg i.p., 46th day of the study): severely dehydrated
ATX inhibition after short pre-incubation ([6]; pre-incubating ATX with compound for 2 minutes): complete inhibition
Serum KC/CXCL-1 [7]: significant reduction
Circulating VEGF vs. controls [8]: did not observe any change
Concentration range of significant activity on cell viability [9]: 0.5 to 5 µM
Effect on cell viability (in words) [9]: reduced cell viability to some extent
ATX inhibition after washout [10]: did not decrease the ATX inhibition
Circulating ATX in serum vs. control ([11]; CVS-16 treated animals, p<0.05): significant reduction
Reduction of wound healing [12]: over 75%

SMILES: O=C(CCN1CCN(C(=O)OCc2cc(Cl)cc(Cl)c2)CC1)c1ccc2[nH]c(=O)oc2c1 [PF-8380, reference compound]
Tumor growth vs. DMF control [3]: neither of these ATX inhibitors reached statistical significance; also recorded: did not impact tumor progression
Circulating ATX in serum vs. control ([11]; 30 mg/kg): no significant difference

ATX inhibition (in words) [6]: did not inhibit ATX
ATX inhibition (in words) ([6]; listed as PVS-16 (21)): no binding effect
ATX inhibition after washout [10]: no evidence of inhibiting ATX activity
SMILES: C=C(CCCCCCCCCCCCCCCC)S(=O)(=O)c1ccccc1 [PVS-16]
Effect on cell viability (in words) [9]: little effect on cell viability
Effect on cell viability (in words) ([9]; listed as PVS-16 (21)): most cell types were unaffected

SMILES: CN(C)/N=N/c1[nH]cnc1C(N)=O [dacarbazine]
Cell viability reached [1]: ≥ 50%

SMILES: CC(=O)O[C@H]1C(=O)[C@@]2(C)[C@H]([C@H](OC(=O)c3ccccc3)[C@]3(O)C[C@H](OC(=O)[C@H](O)[C@@H](NC(=O)c4ccccc4)c4ccccc4)C(C)=C1C3(C)C)[C@]1(OC(C)=O)CO[C@@H]1C[C@@H]2O [paclitaxel]
Cell viability reached [1]: ≥ 50%

SMILES: O=C1S/C(=C\c2ccc(OCc3cccc(B(O)O)c3)cc2)C(=O)N1Cc1ccc(F)cc1 [HA-130, reference compound]
Tumor growth vs. DMF control [3]: neither of these ATX inhibitors reached statistical significance; also recorded: did not impact tumor progression
Circulating ATX in serum vs. control ([11]; 30 mg/kg): no significant difference
